Earlier results in patent US9365837B2, “Peptide inhibitors of protein kinase C” (The Board of Trustees of the Leland Stanford Junior …, priority 2002, dated 2016).

Test system: Sprague-Dawley rats
Conditions: previously identified active in the assay

Q: For “EAIVKQ (fragment derived from SEQ ID NO32) [SEQ ID NO:37, positive control εPKC antagonist, excluded from the peptides of the invention]”, which “activity in the capsaicin assay (positive control)” value is on record?
A: active
